Experimental data from the NIST ThermoML archive (doi:10.1016/j.jct.2012.10.018).
Numbers after ± are expanded uncertainties.

Assay: mn = molality of the nth substance listed, in mol/kg
Details: 101 kPa, Liquid; for speed of sound: Sing-around technique in a fixed-path interferometer; for mass density: Vibrating tube method

NCC(=O)NCC(=O)NCC(=O)O [glycylglycylglycine] + O
Details | mass density, 293.15 K [kg/m3] | mass density, 298.15 K [kg/m3] | mass density, 303.15 K [kg/m3] | mass density, 308.15 K [kg/m3] | speed of sound, 293.15 K [m/s] | speed of sound, 298.15 K [m/s] | speed of sound, 303.15 K [m/s] | speed of sound, 308.15 K [m/s]
m1 = 0.025 | 1000.18 ± 0.13 | 999.002 ± 0.13 | 997.591 ± 0.13 | 995.964 ± 0.13 | 1485.2 ± 1.2 | 1499.3 ± 1.2 | 1511.6 ± 1.2 | 1522.2 ± 1.2
m1 = 0.05 | 1002.1 ± 0.13 | 1000.91 ± 0.13 | 999.479 ± 0.13 | 997.839 ± 0.13 | 1487.9 ± 1.2 | 1501.9 ± 1.2 | 1514.1 ± 1.2 | 1524.6 ± 1.2
m1 = 0.075 | 1004 ± 0.13 | 1002.79 ± 0.13 | 1001.35 ± 0.13 | 999.696 ± 0.13 | 1490.5 ± 1.2 | 1504.4 ± 1.2 | 1516.5 ± 1.2 | 1527 ± 1.2
m1 = 0.0999 | 1005.88 ± 0.13 | 1004.66 ± 0.13 | 1003.2 ± 0.13 | 1001.54 ± 0.13 | 1493.1 ± 1.2 | 1507 ± 1.2 | 1518.9 ± 1.2 | 1529.3 ± 1.2
m1 = 0.1248 | 1007.76 ± 0.13 | 1006.52 ± 0.13 | 1005.05 ± 0.13 | 1003.37 ± 0.13 | 1495.6 ± 1.2 | 1509.5 ± 1.2 | 1521.3 ± 1.2 | 1531.6 ± 1.2
m1 = 0.15 | 1009.64 ± 0.13 | 1008.38 ± 0.13 | 1006.9 ± 0.13 | 1005.21 ± 0.13 | 1498.1 ± 1.2 | 1511.8 ± 1.2 | 1523.7 ± 1.2 | 1533.9 ± 1.2
m1 = 0.175 | 1011.5 ± 0.13 | 1010.22 ± 0.13 | 1008.72 ± 0.13 | 1007.02 ± 0.13 | 1500.6 ± 1.2 | 1514.2 ± 1.2 | 1526 ± 1.2 | 1536.1 ± 1.2
m1 = 0.1926 | 1012.79 ± 0.13 | 1011.5 ± 0.13 | 1010 ± 0.13 | 1008.29 ± 0.13 | 1502.3 ± 1.2 | 1515.9 ± 1.2 | 1527.7 ± 1.2 | 1537.7 ± 1.2
m1 = 0.2706 | 1018.47 ± 0.13 | 1017.13 ± 0.13 | 1015.58 ± 0.13 | 1013.84 ± 0.13 | 1509.7 ± 1.2 | 1522.9 ± 1.2 | 1534.4 ± 1.2 | 1544.3 ± 1.2

O [water] + NCC(=O)NCC(=O)NCC(=O)O
Details | mass density [kg/m3]
308.15 K, m2 = 0 | 994.08 ± 0.13

NCC(=O)NCC(=O)O [glycylglycine] + O
Details | mass density, 293.15 K [kg/m3] | mass density, 298.15 K [kg/m3] | mass density, 303.15 K [kg/m3] | speed of sound, 293.15 K [m/s] | speed of sound, 298.15 K [m/s] | speed of sound, 303.15 K [m/s]
m1 = 0.0467 | 1000.84 ± 0.12 | 999.656 ± 0.12 | 998.24 ± 0.12 | 1486.4 ± 1.2 | 1500.5 ± 1.2 | 1512.8 ± 1.2
m1 = 0.103 | 1003.95 ± 0.12 | 1002.74 ± 0.12 | 1001.3 ± 0.12 | 1491.2 ± 1.2 | 1505.2 ± 1.2 | 1517.2 ± 1.2
m1 = 0.1479 | 1006.4 ± 0.12 | 1005.17 ± 0.12 | 1003.71 ± 0.12 | 1495 ± 1.2 | 1508.8 ± 1.2 | 1520.7 ± 1.2
m1 = 0.1998 | 1009.2 ± 0.12 | 1007.93 ± 0.12 | 1006.45 ± 0.12 | 1499.3 ± 1.2 | 1513 ± 1.2 | 1524.8 ± 1.2
m1 = 0.251 | 1011.92 ± 0.12 | 1010.63 ± 0.12 | 1009.13 ± 0.12 | 1503.5 ± 1.2 | 1517 ± 1.2 | 1528.7 ± 1.2
m1 = 0.2973 | 1014.35 ± 0.12 | 1013.04 ± 0.12 | 1011.52 ± 0.12 | 1507.3 ± 1.2 | 1520.6 ± 1.2 | 1532.2 ± 1.2
m1 = 0.347 | 1016.93 ± 0.12 | 1015.59 ± 0.12 | 1014.07 ± 0.12 | 1511.3 ± 1.2 | 1524.4 ± 1.2 | 1536 ± 1.2
m1 = 0.402 | 1019.73 ± 0.12 | 1018.38 ± 0.12 | 1016.83 ± 0.12 | 1515.7 ± 1.2 | 1528.7 ± 1.2 | 1540.2 ± 1.2
m1 = 0.4499 | 1022.14 ± 0.12 | 1020.78 ± 0.12 | 1019.21 ± 0.12 | 1519.3 ± 1.2 | 1532.3 ± 1.2 | 1543.6 ± 1.2
